{"source": "patent US9272047B2", "about": "“Use of biological surfactant as anti-inflammatory agent and tissue preservative solution” (Shaperon Inc., priority 2007, dated 2016)", "key": {"dendritic cells": {"system": "dendritic cells", "experiment": "In vitro proinflammatory cytokine generation by E. coli LPS, dendritic cells (ELISA)", "assay_type": "cell-based, mouse", "conditions": "LPS stimulation", "protocol": "In order to assay the effect of sodium glycocholate on the generation of proinflammatory cytokines induced by E. coli LPS, dendritic cells were prepared in the same way as Example 3, and macrophages were separated from the abdomen of C57BL/6 mouse. Thereafter, sodium glycocholate and LPS were reacted in vitro for 1 hour at 37° C., and then mixed with the cells. Each cell was stimulated for 14 hours at 37° C., and then supernatant fluid was separated.\nThe concentrations of TNF-α and interleukin-12p40 in the separated supernatant fluid was measured by an enzyme-linked immunoabsorbent assay (ELISA).\nEach group was treated and assayed at least twice, and the results were statistically analyzed through t-test. The results were p<0.05 compared with the experimental groups treated by only LPS."}, "[1]": {"system": "LPS-administered C57BL/6 mice", "experiment": "Protection in LPS mouse model of sepsis (survival)", "assay_type": "in vivo, C57BL/6 mouse", "conditions": "for survival rate of the mice: 20 mg/kg LPS into abdomen", "protocol": "In order to assay the neutralizing capacity of sodium glycocholate to LPS, three C57BL/6 mice of 6 weeks age were used per each group. 20 mg/kg and 10 mg/kg of LPS were administered into abdomen of the mouse in order to measure LD50 of LPS. It was observed that 20 mg/kg of LPS is the best optimal concentration for the test of protection test (FIG. 16).\nThe […] neutralizing capacity of sodium glycocholate to LPS was assayed. The survival rate was measured after 20 mg/kg of LPS was administered into the abdomen of mice and then 12.5 mg/kg of sodium glycocholate, and 20 mg/kg of LPS and 50 mg/kg of sodium glycocholate respectively was administered twice into the abdomen of mice, respectively."}}, "data": [{"smiles": "C[C@H](CCC(=O)NCC(=O)[O-])[C@H]1CC[C@H]2[C@@H]3[C@H](O)C[C@@H]4C[C@H](O)CC[C@]4(C)[C@H]3C[C@H](O)[C@]12C.[Na+]", "note": "[sodium glycocholate]", "values": [{"measurement": "inhibition of generation of TNF-α", "setting": "dendritic cells; 0.5 mg/ml", "result": "70.2±2.3", "unit": "%"}, {"measurement": "inhibition of generation of interleukine-12p40", "setting": "dendritic cells; 0.5 mg/ml", "result": "4.7±3.1", "unit": "%"}, {"measurement": "inhibition of generation of TNF-α", "setting": "dendritic cells; 1 mg/ml", "result": "101.0±0.2", "unit": "%"}, {"measurement": "inhibition of generation of interleukine-12p40", "setting": "dendritic cells; 1 mg/ml", "result": "106.6±1.3", "unit": "%"}, {"measurement": "survival rate of the mice", "setting": "[1]; 12.5 mg/kg administered twice (1 hour and 6 hours after LPS)", "result": 40, "unit": "%"}, {"measurement": "survival rate of the mice", "setting": "[1]; 50 mg/kg administered twice (1 hour and 6 hours after LPS)", "result": 60, "unit": "%"}, {"measurement": "mortality of mice", "setting": "[1]; dose of 12.5 mg/kg mouse", "result": "significantly reduced"}]}]}
